According to patent US10556907B2 (AbbVie Inc., priority 2015, dated 2020):
Where a name gives a salt, the structure may show the parent alone.

How the values were obtained:
Assay in all cases: Method 1: intracellular Ca2+ release (FLIPR, Calcium 5) in recombinant CHO-K1 cells
Format in all cases: cell-based
human S1PR4 receptor = molecular target: T1, human S1PR4 receptor (Homo sapiens, UniProt O95977); conditions: (1): determined with method 1; read-out: S1P4 EC50
T1 construct: host or cells: CHO-K1
T1 sequence (O95977 1-384): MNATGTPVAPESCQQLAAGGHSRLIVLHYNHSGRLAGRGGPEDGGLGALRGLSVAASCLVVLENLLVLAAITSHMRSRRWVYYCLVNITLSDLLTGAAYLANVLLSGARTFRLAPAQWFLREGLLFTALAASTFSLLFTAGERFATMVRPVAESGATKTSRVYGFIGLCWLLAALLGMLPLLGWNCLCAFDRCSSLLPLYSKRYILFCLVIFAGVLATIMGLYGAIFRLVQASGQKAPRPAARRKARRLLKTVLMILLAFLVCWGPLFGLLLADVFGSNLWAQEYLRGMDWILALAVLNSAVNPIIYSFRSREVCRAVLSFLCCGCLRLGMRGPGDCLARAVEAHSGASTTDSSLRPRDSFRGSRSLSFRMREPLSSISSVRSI
Summary of the method: (§1)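 Agonist EC50 values come from nonlinear fits of FLIPR Ca2+ fluorescence, normalized to the phospho-fingolimod reference curve. Recombinant CHO-K1 (receptor plus Gq/i5, aequorin) dye-loaded 1 h at 37° C in pH 7.4 Hepes/probenecid/BSA buffer. Antagonist mode: 10 min preincubation before phospho-fingolimod at EC80.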

human S1PR1 receptor = molecular target: T2, human S1PR1 receptor (Homo sapiens, UniProt P21453); conditions: (1): determined with method 1; read-out: S1P1 EC50
T2 construct: host or cells: CHO-K1
Summary of the method: as §1

human S1PR5 receptor = molecular target: T3, human S1PR5 receptor (Homo sapiens, UniProt Q9H228); conditions: agonist potency, determined with method 1 (symbols A-D); read-out: S1P5 EC50 range
T3 construct: host or cells: CHO-K1
Summary of the method: as §1

T3 sequence (Q9H228 whole entry): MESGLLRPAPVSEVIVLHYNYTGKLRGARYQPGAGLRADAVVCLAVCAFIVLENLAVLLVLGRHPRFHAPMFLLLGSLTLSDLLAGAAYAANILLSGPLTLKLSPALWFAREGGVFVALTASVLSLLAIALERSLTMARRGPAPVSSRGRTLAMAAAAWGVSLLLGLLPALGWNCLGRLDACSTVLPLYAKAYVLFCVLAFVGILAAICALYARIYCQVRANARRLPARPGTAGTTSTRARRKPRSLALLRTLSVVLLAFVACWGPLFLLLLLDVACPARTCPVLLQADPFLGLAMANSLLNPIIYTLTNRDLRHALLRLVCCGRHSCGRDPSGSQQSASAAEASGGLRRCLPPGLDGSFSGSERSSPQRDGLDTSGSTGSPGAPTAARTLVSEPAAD
T2 sequence (P21453 whole entry): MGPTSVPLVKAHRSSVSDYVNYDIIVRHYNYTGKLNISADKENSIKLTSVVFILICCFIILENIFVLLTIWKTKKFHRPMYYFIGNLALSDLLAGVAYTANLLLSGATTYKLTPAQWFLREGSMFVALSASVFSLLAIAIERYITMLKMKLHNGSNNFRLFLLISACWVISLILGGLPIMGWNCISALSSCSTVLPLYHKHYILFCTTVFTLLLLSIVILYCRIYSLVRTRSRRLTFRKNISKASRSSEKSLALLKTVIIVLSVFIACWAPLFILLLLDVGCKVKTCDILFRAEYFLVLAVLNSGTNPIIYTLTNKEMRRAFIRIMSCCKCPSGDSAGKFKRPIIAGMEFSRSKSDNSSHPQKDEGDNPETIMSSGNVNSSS

Structure (SMILES)	EC50 (human S1PR4 receptor) [nM]	EC50 (human S1PR1 receptor) [nM]	EC50 (human S1PR5 receptor) [nM]
O=C(O)CN1CCc2nc(Cc3c(F)cccc3F)ncc2C1 [Compound 26, 2-(2-(2,6-difluorobenzyl)-7,8-dihydropyrido[4,3-d]pyrimidin-6(5H)-yl)acetic acid]	> 1000	> 1000	1000 to 10000
Cc1cccc(COc2ccc(-c3ncc4c(n3)CCN(CC(C)CC(=O)O)C4)c(F)c2)c1 (stereo not drawn) [Compound 264, 4-[2-[2-fluoro-4-(m-tolylmethoxy)phenyl]-7,8-dihydro-5H-pyrido[4,3-d]pyrimidin-6-yl]-3-methyl-butanoic acid 2,2,2-trifluoroacetic acid salt]	> 1000	> 1000	10 to 100
Cc1cc(-c2ncc3c(n2)CCN(CC(C)CC(=O)O)C3)ccc1CCc1cccc(Cl)c1 (stereo not drawn) [Compound 331, 4-(2-(4-(3-chlorophenethyl)-3-methylphenyl)-7,8-dihydropyrido[4,3-d]pyrimidin-6(5H)-yl)-3-methylbutanoic acid]	< 1000	> 1000	1000 to 10000
Cc1cc(C)cc(COc2ccc(-c3ncc4c(n3)CCN(CC(C)CC(=O)O)C4)c(F)c2)c1 (stereo not drawn) [Compound 313, 4-[2-[4-[(3,5-dimethylphenyl)methoxy]-2-fluoro-phenyl]-7,8-dihydro-5H-pyrido[4,3-d]pyrimidin-6-yl]-3-methyl-butanoic acid 2,2,2-trifluoroacetic acid salt]	> 1000	> 1000	100 to 1000
C[C@H](CC(=O)O)C(=O)N1CCc2nc(-c3ccc(OCc4ccc(Cl)cc4)cc3)ncc2C1 [Compound 332, (R)-4-(2-(4-((4-chlorobenzyl)oxy)phenyl)-7,8-dihydropyrido[4,3-d]pyrimidin-6(5H)-yl)-3-methyl-4-oxobutanoic acid]	> 1000	> 1000	1000 to 10000
O=C(O)C1(CCN2CCc3nc(-c4ccc(OCc5ccc(Cl)cc5)cc4)ncc3C2)CC1 [Compound 335, 1-(2-(2-(4-((4-chlorobenzyl)oxy)phenyl)-7,8-dihydropyrido[4,3-d]pyrimidin-6(5H)-yl)ethyl)cyclopropanecarboxylic acid]	> 1000	> 1000	100 to 1000
CC(CC(=O)O)CN1CCc2nc(-c3ccc(CCc4ccc(Cl)cc4)cc3F)ncc2C1 (stereo not drawn) [Compound 255, 4-(2-(4-(4-chlorophenethyl)-2-fluorophenyl)-7,8-dihydropyrido[4,3-d]pyrimidin-6(5H)-yl)-3-methylbutanoic acid]	> 1000	> 1000	< 10
CC(CC(=O)O)CN1CCc2nc(-c3ccc(/C=C/c4ccc(Cl)cc4)cc3)ncc2C1 (stereo not drawn) [Compound 297, 4-(2-(4-(4-chlorostyryl)phenyl)-7,8-dihydropyrido[4,3-d]pyrimidin-6(5H)-yl)-3-methylbutanoic acid]	> 1000	> 1000	100 to 1000
O=C(O)C1CC(N2CCc3nc(-c4ccc(OCc5ccc(Cl)cc5)cc4)ncc3C2)C1 (stereo not drawn) [Compound 287, 3-(2-(4-((4-chlorobenzyl)oxy)phenyl)-7,8-dihydropyrido[4,3-d]pyrimidin-6(5H)-yl)cyclobutanecarboxylic acid]	> 1000	> 1000	100 to 1000
CC(C(=O)O)N1CCc2nc(-c3ccc(OCc4cccc(Cl)c4)cc3)ncc2C1 (stereo not drawn) [Compound 317, 2-(2-(4-((3-chlorobenzyl)oxy)phenyl)-7,8-dihydropyrido[4,3-d]pyrimidin-6(5H)-yl)propanoic acid]	> 1000	> 1000	100 to 1000
CC(CC(=O)O)CN1CCc2nc(-c3ccc(OCC4CCCCC4)cc3)ncc2C1 (stereo not drawn) [Compound 336, 4-(2-(4-(cyclohexylmethoxy)phenyl)-7,8-dihydropyrido[4,3-d]pyrimidin-6(5H)-yl)-3-methylbutanoic acid]	< 1000	> 1000	< 10
CC(CC(=O)O)CN1CCc2nc(-c3ccc(OCc4cccc(F)c4)cc3F)ncc2C1 (stereo not drawn) [Compound 289, 4-[2-[2-fluoro-4-[(3-fluorophenyl)methoxy]phenyl]-7,8-dihydro-5H-pyrido[4,3-d]pyrimidin-6-yl]-3-methyl-butanoic acid 2,2,2-trifluoroacetic acid salt]	> 1000	> 1000	100 to 1000
CC(C)(CC(=O)O)CN1CCc2nc(-c3ccc(OCc4cccc(Cl)c4)cc3)cnc2C1 [Compound 211, 4-(2-(4-((3-chlorobenzyl)oxy)phenyl)-7,8-dihydropyrido[3,4-b]pyrazin-6(5H)-yl)-3,3-dimethylbutanoic acid]	> 1000	> 1000	1000 to 10000
C[C@H](CCO)CN1CCc2nc(-c3ccc(OCc4ccc(Cl)cc4)cc3)ncc2C1 [Compound 315, (R)-4-(2-(4-((4-chlorobenzyl)oxy)phenyl)-7,8-dihydropyrido[4,3-d]pyrimidin-6(5H)-yl)-3-methylbutan-1-ol]	> 1000	> 1000	100 to 1000
O=C(O)CN1CCc2nc(-c3ccc(OCc4ccccc4)cc3)ncc2C1 [Compound 25, 2-(2-(4-(benzyloxy)phenyl)-7,8-dihydropyrido[4,3-d]pyrimidin-6(5H)-yl)acetic acid]	> 1000	> 1000	100 to 1000
O=C(O)CN1CCc2nc(-c3ccc(OCc4cc(F)cc(F)c4)cc3)ncc2C1 [Compound 31, 2-(2-(4-((3,5-difluorobenzyl)oxy)phenyl)-7,8-dihydropyrido[4,3-d]pyrimidin-6(5H)-yl)acetic acid]	> 1000	> 1000	100 to 1000
Cc1cc(-c2ncc3c(n2)CCN(CC(C)CC(=O)O)C3)ccc1OCc1c(C)cccc1C (stereo not drawn) [Compound 274, 4-[2-[4-[(2,6-dimethylphenyl)methoxy]-3-methyl-phenyl]-7,8-dihydro-5H-pyrido[4,3-d]pyrimidin-6-yl]-3-methyl-butanoic acid 2,2,2-trifluoroacetic acid salt]	> 1000	> 1000	10 to 100
Cc1ccc(C(F)(F)F)c(COc2ccc(-c3ncc4c(n3)CCN(CC(C)CC(=O)O)C4)c(F)c2)c1 (stereo not drawn) [Compound 290, 4-[2-[2-fluoro-4-[[5-methyl-2-(trifluoromethyl)phenyl]methoxy]phenyl]-7,8-dihydro-5H-pyrido[4,3-d]pyrimidin-6-yl]-3-methyl-butanoic acid 2,2,2-trifluoroacetic acid salt]	> 1000	> 1000	100 to 1000
CC(CC(=O)O)CN1CCc2nc(-c3ccc(OCc4ccc(F)cc4)cc3F)ncc2C1 (stereo not drawn) [Compound 298, 4-[2-[2-fluoro-4-[(4-fluorophenyl)methoxy]phenyl]-7,8-dihydro-5H-pyrido[4,3-d]pyrimidin-6-yl]-3-methyl-butanoic acid 2,2,2-trifluoroacetic acid salt]	> 1000	> 1000	100 to 1000
Cc1ccc(C(F)(F)F)cc1COc1ccc(-c2ncc3c(n2)CCN(CC(C)CC(=O)O)C3)cc1C (stereo not drawn) [Compound 314, 3-methyl-4-[2-[3-methyl-4-[[2-methyl-5-(trifluoromethyl)phenyl]methoxy]phenyl]-7,8-dihydro-5H-pyrido[4,3-d]pyrimidin-6-yl]butanoic acid 2,2,2-trifluoroacetic acid salt]	> 1000	> 1000	100 to 1000
Cc1cc(-c2ncc3c(n2)CCN(CC(C)CC(=O)O)C3)ccc1OCc1cccc(C(F)(F)F)c1 (stereo not drawn) [Compound 302, 3-methyl-4-[2-[3-methyl-4-[[3-(trifluoromethyl)phenyl]methoxy]phenyl]-7,8-dihydro-5H-pyrido[4,3-d]pyrimidin-6-yl]butanoic acid 2,2,2-trifluoroacetic acid salt]	> 1000	> 1000	100 to 1000
Cc1cc(-c2ncc3c(n2)CCN(CC(C)CC(=O)O)C3)ccc1OCc1cccc(C)c1C (stereo not drawn) [Compound 300, 4-[2-[4-[(2,3-dimethylphenyl)methoxy]-3-methyl-phenyl]-7,8-dihydro-5H-pyrido[4,3-d]pyrimidin-6-yl]-3-methyl-butanoic acid 2,2,2-trifluoroacetic acid salt]	> 1000	> 1000	100 to 1000
Cc1cc(-c2ncc3c(n2)CCN(CC(C)CC(=O)O)C3)ccc1OCc1ccccc1Cl (stereo not drawn) [Compound 262, 4-(2-(4-((2-chlorobenzyl)oxy)-3-methylphenyl)-7,8-dihydropyrido[4,3-d]pyrimidin-6(5H)-yl)-3-methylbutanoic acid]	> 1000	> 1000	10 to 100
CC(CC(=O)O)CN1CCc2nc(-c3ccc(CCc4cccc(Cl)c4)cc3F)ncc2C1 (stereo not drawn) [Compound 292, 4-(2-(4-(3-chlorophenethyl)-2-fluorophenyl)-7,8-dihydropyrido[4,3-d]pyrimidin-6(5H)-yl)-3-methylbutanoic acid]	> 1000	> 1000	100 to 1000
CC(C(=O)O)N1CCc2nc(-c3ccc(OCc4ccccc4)cc3)ncc2C1 (stereo not drawn) [Compound 322, 2-(2-(4-(benzyloxy)phenyl)-7,8-dihydropyrido[4,3-d]pyrimidin-6(5H)-yl)propanoic acid]	> 1000	> 1000	1000 to 10000
